From patent US12091394B2, “Crystal modifications of odevixibat” (Albireo AB, priority 2018, dated 2024)

How the values were obtained:
[1] = Stability testing: storage in a closed container under air at 80° C., odevixibat content by HPLC; type: physicochemical; settings: for Odevixibat content (%): closed container under air at 80° C., HPLC
Description: Analyses were performed on an Agilent, Series 1100, equipped with an Agilent 1260 Infinity degasser. Column: Waters XSelcet CHS C18 (150×3 mm, 3.5 μm); Mobile phase A: 0.1% formic acid in water, mobile phase B: 0.1% formic acid in acetonitrile; Gradient 45% to 90% B; flow rate 0.425 mL/min; Acquisition time 35 minutes; Run time 42 minutes; Wave length: 283 nm; Column temperature 20° C. The Chromeleon Version 6.8 software was used.
Samples of amorphous odevixibat (purity ˜91%) and of crystal modification 1 of odevixibat (purity>99%; crystallinity 100%) were stored in a closed container under air at 80° C. The amount of odevixibat in the samples was determined by HPLC at the beginning of the experiment, and was again determined after 1, 2 and 4 weeks.

[2] = Dynamic vapour sorption (DVS) water uptake of crystal modification 1; type: physicochemical
Description: DVS measurements were performed with an SPS11-100n “Sorptions Prüfsystem” from ProUmid (formerly “Projekt Messtechnik”), August-Nagel-Str. 23, 89079 Ulm (Germany). About 20 mg of sample was used. Humidity change rates of 5% per hour were used. The sample was placed on an aluminum or platinum holder on top of a microbalance and allowed to equilibrate at 0% RH before starting the pre-defined humidity program: • (1) 5 h at 0% RH • (2) 0→95% RH (5%/h); 5 h at 95% RH • (3) 95→0% RH (5%/h); 5 h at 0% RH • (4) 0→95% RH (5%/h); 5 h at 95% RH • (5) 95→0% RH (5%/h); 5 h at 0% RH High-Performance Liquid Chromatography (HPLC) The water uptake of crystal modification 1 was measured using dynamic vapour sorption (DVS). […] After drying the sample at 0% RH and increasing the relative humidity, most of the water was taken back up to about 25% RH. This corresponds to a water content of about 3.5% (w/w). An additional 1.5% (w/w) of water was then taken up when the humidity was increased up to 95% RH. […] Crystal modification 1 therefore seems to require about 3.5% (w/w) of water, which corresponds to a sesquihydrate.

[3] = 0 weeks (beginning of the experiment)
[4] = after 4 weeks of storage at 80° C. under air

| Compound | Odevixibat content (%) [1, 3] | Odevixibat content (%) ([1]; 1 week) | Odevixibat content (%) ([1]; 2 weeks) | Odevixibat content (%) ([1]; 4 weeks) | decomposition [1, 4] | change of purity [1, 4] | hygroscopicity ([2]; DVS, conclusion in words) | water content ([2]; after drying at 0% RH, water taken back up to about 25% RH) | maximum water uptake ([2]; at 95% RH, reversible) | water content ([2]; at about 30% relative humidity, based on the total crystal weight) | additional water uptake ([2]; humidity increased up to 95% RH (range 30-95% RH)) |
| --- | --- | --- | --- | --- | --- | --- | --- | --- | --- | --- | --- |
| CCCCC1(CCCC)CN(c2ccccc2)c2cc(SC)c(OCC(=O)N[C@@H](C(=O)N[C@@H](CC)C(=O)O)c3ccc(O)cc3)cc2S(=O)(=O)N1 [Amorphous odevixibat, 1,1-dioxo-3,3-dibutyl-5-phenyl-7-methylthio-8-(N—{(R)-α-[N—((S)-1-carboxypropyl)carbamoyl]-4-hydroxybenzyl}carbamoylmethoxy)-2,3,4,5-tetrahydro-1,2,5-benzothiadiazepine, reference compound] | 91.1% | 90.9% | 91.04% | 90.8% | 0.3% | – | – | – | – | – | – |
| CCCCC1(CCCC)CN(c2ccccc2)c2cc(SC)c(OCC(=O)N[C@@H](C(=O)N[C@@H](CC)C(=O)O)c3ccc(O)cc3)cc2S(=O)(=O)N1 [crystal modification 1, 1,1-dioxo-3,3-dibutyl-5-phenyl-7-methylthio-8-(N—{(R)-α-[N—((S)-1-carboxypropyl)carbamoyl]-4-hydroxybenzyl}carbamoylmethoxy)-2,3,4,5-tetrahydro-1,2,5-benzothiadiazepine] | 99.13% | 99.15% | 99.18% | 99.24% | – | had not changed | slightly hygroscopic | about 3.5 % (w/w) | about 5.0 % (w/w) | about 3.5 % (w/w) | 1.5 % (w/w) |
